# In PMC10671498, “Antiproliferative and Cytotoxic Properties of Propynoyl Betulin Derivatives against Human Ovarian Cancer Cells: In Vitro Studies” (International Journal of Molecular Sciences, 2023):
# Read-outs that look alike come from different tables or passages of the source.
# Tests used:
# SK-OV-3 cells [1] = test: TMRM analysis of mitochondrial membrane potential; format: cell-based, human; details: SK-OV-3, 3 h, 30 µM
# Description: Tetramethylrhodamine methyl ester (Sigma Aldrich) was used for the assessment of changes in the transmembrane potential of mitochondria. TMRM is a fluorescent cationic dye accumulating in mitochondria in a potential-dependent manner. Cell cultures were prepared as described above for acridine orange staining. Cells were exposed to test solutions for 3 h, and then TMRM was added (final concentration 100 nM) followed by incubation for 30 min in the CO2 incubator. Prior to observation, the plates were centrifuged (250× g, 5 min), and the medium was changed to PBS. The cells were analyzed under the Nikon Eclipse TS-100F microscope and photographed.
# SNB-19 cell line = test system: SNB-19 cell line; set-up: method as in PMID 33572631; details: cited from earlier work
# SK-OV-3 cells [2] = test: LDH release assay, SK-OV-3; format: cell-based, human; details: SK-OV-3, 24 h, 10 μM and 30 μM
# Description: In order to evaluate the cytotoxic effect, the release of LDH into the culture medium using the In Vitro Toxicology Assay Kit, Lactic Dehydrogenase Based (TOX7; Sigma Aldrich) was assessed. SK-OV-3 and OVCAR-3 cells were plated and cultured in 96-well plates (Greiner Bio-One) at the initial density of 5 × 10^3 cells per well in 100 µL of culture medium. The density of the cells was determined in the same manner as in the SRB assay. After 24 h, the media were replaced with the working solutions, which contained appropriate test compounds at concentrations of 3 μM, 10 μM, 30 μM, and control medium (0.2% DMSO). Cells were exposed to the test substances for 24 h. The background control comprised wells without cells with only control medium. To determine the maximal LDH release (high control), half of the control cultures were treated with lysis buffer. Wells with untreated cells were used as the low control of the assay. LDH activity in media was assessed according to the manufacturer’s protocol. The absorbance was measured at wavelengths of 490 nm and 690 nm (background), and the percentage of released enzyme was calculated for cells growing in the presence of compounds according to the formula:Cytotoxicity [%] = [(AT − AL)/(AH − AL)] × 100 where AT is the absorbance of treated wells; AL is low control; and AH is high control (maximal LDH release).
# Cytotoxicity was expressed as a percentage of the released LDH calculated according to the difference between the absorbance of the treated and low control wells divided by the difference between the absorbance of the high control and low control wells.
# SK-OV-3 cells [3] = test: SRB cell proliferation assay, SK-OV-3; format: cell-based, human; details: for IC50: Homo sapiens
# Description: This study used ovarian cancer cell lines, which are part of the panel of cell lines used as part of the NCI-60 Human Cell Lines Screen program, characterized by overexpression of the c-erbB2/neu (HER2) receptor [62, 63]. The human ovarian cancer cell lines (SK-OV-3 and OVCAR-3) were purchased from the American Type Culture Collection (ATCC®, Manassas, Virginia, USA). SK-OV-3 cells (ATCC No. HTB-77™) were cultured in McCoy’s 5A medium containing D-glucose (3 g/L), L-glutamine (0.219 g/L), and sodium bicarbonate (2.2 g/L) supplemented with 10% fetal bovine serum, 10 mM HEPES (pH 7.3–7.5), 100 U/mL penicillin, and 100 μg/mL streptomycin (all from Sigma Aldrich).
# Betulin 1 and its derivatives were dissolved in dimethyl sulfoxide (DMSO; Sigma Aldrich) as a 15 mM stock solution. Working solutions were prepared through the dilution of stock solutions with culture medium. The final DMSO concentration in culture media was adjusted to 0.2%. The effect of tested compounds on the proliferation of SK-OV-3 and OVCAR-3 cells was measured using the In Vitro Toxicology Assay Kit, Sulforhodamine B based (Sigma Aldrich). Cells were seeded in 96-well plates (Greiner Bio-One, Kremsmünster, Austria) at an initial density of 3 × 10^3 cells per well in 200 µL of culture medium. After 24 h of incubation, betulin 1 and its derivatives at a concentration range of 0.1 μM to 30 μM were added to the wells. Control cultures were treated with vehicle alone (0.2% DMSO). The incubation periods for cells with test compounds were 1 day, 3 days, and 5 days. After appropriate incubation periods, culture media were removed, and cells were fixed in 10% trichloroacetic acid solution for 60 min at 4 °C. After fixation, the TCA solution was removed, and the plates were washed three times with deionized water (300 μL/well) and dried. At the next step, cells were stained with 0.4% sulforhodamine B for 30 min. The excess dye was removed by washing three times with 1% (vol/vol) acetic acid. The protein-bound dye was dissolved in 200 μL 10 mM Tris base solution. Absorbance was measured at 570 nm and 690 nm (reference wavelength) using the MRX Revelation plate reader (Dynex Technologies, Chantilly, VA, USA).
# GraphPad Prism 10.0.2 (GraphPad Software Inc., San Diego, CA, USA) software was used for calculations and the statistical analysis of the IC50 values (Table 1). IC50 was determined by using the “nonlinear regression” mode, and the “log(inhibitor) vs. normalised response—Variable slope” equation was chosen in GraphPad Prism software for calculations. The obtained data were normalized to run from 100% down to 0%, and logarithms of concentration were used. Graphs (Figure 2, Figure 3, Figure 4, Figure 5 and Figure 8, and Supplementary Figure S1) were also prepared using this software. In the case of the lack of normal distribution or homogeneity of variances, the remaining results were analyzed using a non-parametric Kruskal–Wallis test with multiple comparisons. Post hoc analysis was performed with the non-parametric equivalent of Tukey’s test. A p value of <0.05 was considered statistically significant. Otherwise, a one-way ANOVA followed by a Tukey’s post hoc test was applied. t-tests was used to perform pairwise comparisons between group means. Analysis was performed using Statistica 13.1 software (StatSoft, Tulsa, OK, USA).
# T47D cell line = test system: T47D cell line; set-up: method as in PMID 33572631; details: cited from earlier work
SMILES,mitochondrial membrane potential (TMRM fluorescence) (SK-OV-3 cells [1]),IC50 (SNB-19 cell line) [nM],cytotoxicity (released LDH) (SK-OV-3 cells [2]),"IC50 (SK-OV-3 cells [3]; SK-OV-3, 72 h) [nM]","IC50 (SK-OV-3 cells [3]; SK-OV-3, 120 h) [nM]","concentration at which antiproliferative activity (decrease in the number of cells) was evident (SK-OV-3 cells [3]; SK-OV-3, SRB assay, 0.1–30 µM) [µM]",IC50 (T47D cell line) [nM],"IC50 (SK-OV-3 cells [3]; 72 h, SK-OV-3, 3 days treatment, SRB assay, read-out: IC50) [nM]","IC50 (SK-OV-3 cells [3]; 120 h, SK-OV-3, 5 days treatment, SRB assay, read-out: IC50) [nM]"
"C#CC(=O)OC[C@]12CC[C@@H](/C(C)=C/P(=O)(OCC)OCC)C1C1CCC3[C@@]4(C)CC[C@H](O)C(C)(C)C4CC[C@@]3(C)[C@]1(C)CC2 (stereo partly drawn) [Compound 6, E-29-diethoxyphosphoryl-28-O-propynoylbetulin]",reduced the mitochondrial membrane potential,430,most cytotoxic agent,290,260,1,700,,
"C=C(C)[C@@H]1CC[C@]2(CO)CC[C@]3(C)[C@H](CC[C@@H]4[C@@]5(C)CC[C@H](O)C(C)(C)[C@@H]5CC[C@]43C)[C@@H]12 [Compound 1, lup-20(29)-ene-3β,28-diol, reference compound]",,,,,,,,8210,4590
